According to patent US20220282217A1, “COMPOSITIONS AND METHODS FOR PREPARING T CELL COMPOSITIONS AND USES THEREOF” (priority 2019, published 2022):
Where a SMILES comes first, the peptide text is derived from it.

Legend:
HLA-B07.02 = HLA-B07.02 (Homo sapiens, UniProt P01889); assay: Class I MHC peptide binding affinity (displacement of radiolabeled reference peptide); details: Allele B07.02; read-out: Observed Affinity (IC50; (nM))
HLA-A24.02 = assay: as above; parameters: species or system human; details: allele A24.02; read-out: Observed Affinity (IC50; (nM))
HLA-A02.01 [1] = biological target: HLA-A02.01 (Homo sapiens, UniProt P04439, D140Y/D185E/D98H/E176V/E277Q/G131W/G231S/I119V/I121R/I166T/I218V/L300P/L318F/N151K/N90K/P208A/P217A/Q86G/Q94H/R138H/R169H/T345S); assay: as above; details: for Kd: EGFR T790M peptides, HLA allele A02.01, read-out: Affinity; for IC50: allele A02.01, read-out: Observed Affinity (IC50, (nM))
Procedure, shortened: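 Steps: form MHCI complexes carrying labeled reference peptide; add competitor peptides at graded doses; incubate 2 days; separate complex-bound from free label by size-exclusion chromatography and count what remains bound.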

HLA-A02.01 [2] = biological target: T1, HLA-A02.01 (Homo sapiens, UniProt P04439, D140Y/D185E/D98H/E176V/E277Q/G131W/G231S/I119V/I121R/I166T/I218V/N151K/N90K/P208A/P217A/Q86G/Q94H/R138H/R169H); assay: Class I MHC peptide binding stability (pMHC-I dissociation, 125I-labeled light chain); details: for Stability (T1/2 (h)): allele A02.01; for Stability (half-life (hr.)): EGFR T790M peptides, HLA allele A02.01
T1 construct: made in house; host or cells: E. coli

| IC50 (HLA-B07.02) | IC50 (HLA-A24.02) | Structure (SMILES) | Kd (HLA-A02.01 [1]) | IC50 (HLA-A02.01 [1]) | Stability (T1/2 (h)) (HLA-A02.01 [2]) | Stability (half-life (hr.)) (HLA-A02.01 [2]) |
| --- | --- | --- | --- | --- | --- | --- |
| 48.6 nM | – | C[C@H](NC(=O)[C@H](C)NC(=O)[C@H](CCCNC(=N)N)NC(=O)[C@@H]1CCCN1C(=O)[C@@H]1CCCN1C(=O)[C@H](CCCNC(=N)N)NC(=O)[C@@H]1CCCN1C(=O)[C@@H]1CCCN1C(=O)CN)C(=O)N[C@@H](CS)C(=O)O (H-GPPRPPRAAC-OH; N-terminus and C-terminus assumed) | – | – | – | – |
| 12.5 nM | – | CC[C@H](C)[C@H](NC(=O)[C@H](CC(N)=O)NC(=O)[C@@H](NC(=O)[C@H](CC(=O)O)NC(=O)[C@H](CCCCN)NC(=O)[C@@H]1CCCN1C(=O)[C@@H](N)CCSC)C(C)C)C(=O)N[C@@H](CCC(N)=O)C(=O)N[C@H](C(=O)O)C(C)C | – | – | – | – |
| – | 713 nM | CC[C@H](C)[C@H](NC(=O)[C@H](CC(=O)O)NC(=O)[C@H](Cc1ccccc1)NC(=O)[C@H](CC(C)C)NC(=O)[C@@H](NC(=O)[C@H](CCC(=O)O)NC(=O)[C@@H](NC(=O)[C@H](CCSC)NC(=O)[C@@H](N)Cc1c[nH]c2ccccc12)[C@@H](C)O)[C@@H](C)O)C(=O)O (H-WMTETLFDI-OH; N-terminus and C-terminus assumed) | – | 14 nM | 4 h | – |
| 109 nM | – | CC(C)C[C@H](NC(=O)[C@@H]1CCCN1C(=O)[C@@H]1CCCN1C(=O)[C@@H](NC(=O)[C@@H](NC(=O)[C@H](Cc1c[nH]c2ccccc12)NC(=O)[C@H](CC(C)C)NC(=O)[C@@H](NC(=O)[C@@H]1CCCN1C(=O)[C@@H](N)CCC(N)=O)C(C)C)[C@@H](C)O)[C@@H](C)O)C(=O)O (H-QPVLWTTPPL-OH; N-terminus and C-terminus assumed) | – | – | – | – |
| 2110 nM | – | CC(C)C[C@H](NC(=O)[C@H](CC(=O)O)NC(=O)[C@H](Cc1ccccc1)NC(=O)[C@@H]1CCCN1C(=O)[C@@H](NC(=O)[C@H](C)NC(=O)[C@@H]1CCCN1C(=O)[C@@H](N)C(C)C)C(C)C)C(=O)N[C@@H](Cc1c[nH]cn1)C(=O)N[C@@H](Cc1ccccc1)C(=O)O (H-VPAVPFDLHF-OH; N-terminus and C-terminus assumed) | – | – | – | – |
| – | 60.1 nM | CC[C@H](C)[C@H](NC(=O)[C@H](Cc1ccc(O)cc1)NC(=O)[C@H](CC(C)C)NC(=O)[C@@H](N)CC(C)C)C(=O)N[C@H](C(=O)N[C@@H](C)C(=O)N[C@@H](Cc1ccccc1)C(=O)N[C@@H](Cc1ccccc1)C(=O)N[C@@H](CC(C)C)C(=O)N[C@@H](CC(C)C)C(=O)O)[C@@H](C)O (H-LLYITAFFLL-OH; N-terminus and C-terminus assumed) | – | 323 nM | – | – |
| – | 44900 nM | CC[C@H](C)[C@H](NC(=O)[C@@H](NC(=O)[C@@H](NC(=O)[C@H](CC(C)C)NC(=O)[C@@H](NC(=O)[C@@H]1CCCN1C(=O)[C@H](CCCNC(=N)N)NC(=O)[C@H](Cc1c[nH]c2ccccc12)NC(=O)[C@H](CC(N)=O)NC(=O)[C@@H](N)CCSC)[C@@H](C)CC)[C@@H](C)O)[C@@H](C)CC)C(=O)O (H-MNWRPILTII-OH; N-terminus and C-terminus assumed) | – | 1030 nM | 0.4 h | – |
| – | 828 nM | CC[C@H](C)[C@H](NC(=O)[C@H](Cc1c[nH]c2ccccc12)NC(=O)[C@H](CC(C)C)NC(=O)[C@@H]1CCCN1C(=O)[C@H](CO)NC(=O)[C@H](CCCNC(=N)N)NC(=O)[C@H](CC(C)C)NC(=O)[C@@H](N)CCCCN)C(=O)N[C@@H](Cc1ccccc1)C(=O)O (H-KLRSPLWIF-OH; N-terminus and C-terminus assumed) | – | – | – | – |
| – | 0.8 nM | CSCC[C@H](NC(=O)[C@H](CCC(=O)O)NC(=O)[C@H](CC(C)C)NC(=O)[C@H](CC(C)C)NC(=O)[C@H](CC(C)C)NC(=O)CNC(=O)[C@H](Cc1ccc(O)cc1)NC(=O)[C@@H](N)CC(C)C)C(=O)N[C@@H](CC(C)C)C(=O)O (H-LYGLLLEML-OH; N-terminus and C-terminus assumed) | – | – | – | – |
| – | 141 nM | CSCC[C@H](NC(=O)[C@H](CCCNC(=N)N)NC(=O)[C@@H](N)CCCNC(=N)N)C(=O)N1CCC[C@H]1C(=O)N1CCC[C@H]1C(=O)N[C@@H](CS)C(=O)N[C@@H](CC(C)C)C(=O)N[C@@H](C)C(=O)N[C@@H](CC(N)=O)C(=O)N[C@@H](Cc1ccccc1)C(=O)O (H-RRMPPCLANF-OH; N-terminus and C-terminus assumed) | – | – | – | – |
| – | 7700 nM | CC(C)C[C@H](NC(=O)[C@@H](NC(=O)[C@H](CO)NC(=O)[C@@H]1CCCN1C(=O)[C@H](CC(C)C)NC(=O)[C@H](Cc1ccccc1)NC(=O)[C@@H](NC(=O)[C@H](Cc1ccc(O)cc1)NC(=O)[C@@H](NC(=O)CN)C(C)C)[C@@H](C)O)[C@@H](C)O)C(=O)O (H-GVYTFLPSTL-OH; N-terminus and C-terminus assumed) | – | 1200 nM | 0.4 h | – |
| – | 73.4 nM | CC[C@H](C)[C@H](NC(=O)[C@H](Cc1ccc(O)cc1)NC(=O)[C@H](CS)NC(=O)[C@H](Cc1ccccc1)NC(=O)[C@@H](N)Cc1ccccc1)C(=O)N[C@@H](CC(C)C)C(=O)N[C@@H](CC(N)=O)C(=O)N[C@H](C(=O)N[C@@H](CCSC)C(=O)N[C@@H](Cc1ccccc1)C(=O)O)[C@@H](C)O (H-FFCYILNTMF-OH; N-terminus and C-terminus assumed) | – | – | – | – |
| – | 0.1 nM | CC[C@H](C)[C@H](NC(=O)[C@H](Cc1ccc(O)cc1)NC(=O)[C@@H](N)CC(C)C)C(=O)N[C@H](C(=O)N[C@@H](C)C(=O)N[C@@H](Cc1ccccc1)C(=O)N[C@@H](Cc1ccccc1)C(=O)N[C@@H](CC(C)C)C(=O)N[C@@H](CC(C)C)C(=O)O)[C@@H](C)O (H-LYITAFFLL-OH; N-terminus and C-terminus assumed) | – | – | – | – |
| – | 332 nM | CC[C@H](C)[C@H](NC(=O)[C@H](CCCCN)NC(=O)[C@H](CO)NC(=O)[C@H](CCC(=O)O)NC(=O)[C@H](C)NC(=O)[C@H](CCCCN)NC(=O)[C@H](CC(C)C)NC(=O)[C@H](Cc1ccccc1)NC(=O)[C@@H](N)CCSC)C(=O)O (H-MFLKAESKI-OH; N-terminus and C-terminus assumed) | – | – | – | – |
| – | 28.2 nM | CC(C)C[C@H](NC(=O)[C@@H](NC(=O)[C@H](CO)NC(=O)[C@H](CO)NC(=O)[C@H](CC(C)C)NC(=O)[C@@H](N)CCCNC(=N)N)C(C)C)C(=O)N[C@@H](CCC(N)=O)C(=O)N[C@@H](CCCNC(=N)N)C(=O)N[C@@H](Cc1ccccc1)C(=O)O (H-RLSSVLQRF-OH; N-terminus and C-terminus assumed) | – | – | – | – |

| Structure (SMILES) | IC50 (HLA-B07.02) | IC50 (HLA-A24.02) | Kd (HLA-A02.01 [1]) | IC50 (HLA-A02.01 [1]) | Stability (T1/2 (h)) (HLA-A02.01 [2]) | Stability (half-life (hr.)) (HLA-A02.01 [2]) |
| --- | --- | --- | --- | --- | --- | --- |
| CC[C@H](C)[C@H](NC(=O)[C@H](CC(C)C)NC(=O)[C@H](CCC(N)=O)NC(=O)[C@@H](N)C(C)C)C(=O)N[C@@H](CCSC)C(=O)N[C@@H](CCC(N)=O)C(=O)N[C@@H](CC(C)C)C(=O)N[C@@H](CCSC)C(=O)N1CCC[C@H]1C(=O)N[C@@H](Cc1ccccc1)C(=O)O | – | 4560 nM | 4940 nM | 5490 nM | – | – |
| CC[C@H](C)[C@H](NC(=O)[C@@H]1CCCN1C(=O)[C@H](Cc1ccccc1)NC(=O)[C@H](Cc1ccccc1)NC(=O)[C@H](CCCNC(=N)N)NC(=O)[C@H](C)NC(=O)[C@H](CC(C)C)NC(=O)[C@H](CCC(N)=O)NC(=O)[C@@H](N)[C@@H](C)O)C(=O)O | – | 52 nM | – | 19 nM | – | – |
| CSCC[C@H](NC(=O)[C@H](CC(C)C)NC(=O)[C@H](CO)NC(=O)[C@H](CC(C)C)NC(=O)[C@@H]1CCCN1C(=O)[C@H](CCC(N)=O)NC(=O)[C@H](CCSC)NC(=O)[C@H](CCC(N)=O)NC(=O)[C@@H](N)Cc1ccccc1)C(=O)O | – | 14600 nM | – | 553 nM | 0.3 h | – |
| CC[C@H](C)[C@H](NC(=O)[C@@H]1CCCN1C(=O)[C@H](CCCNC(=N)N)NC(=O)[C@H](Cc1c[nH]c2ccccc12)NC(=O)[C@H](CC(N)=O)NC(=O)[C@H](CCSC)NC(=O)CNC(=O)CNC(=O)[C@H](CCSC)NC(=O)[C@@H](N)CS)C(=O)O | – | 4450 nM | – | 346 nM | 0.4 h | – |
| CC[C@H](C)[C@H](NC(=O)[C@H](CO)NC(=O)[C@H](Cc1c[nH]c2ccccc12)NC(=O)[C@H](Cc1c[nH]cn1)NC(=O)[C@H](C)NC(=O)[C@@H]1CCCN1C(=O)[C@H](CCSC)NC(=O)[C@H](CC(C)C)NC(=O)[C@H](CO)NC(=O)[C@@H](N)CC(C)C)C(=O)O | – | 12400 nM | – | 164 nM | 0.4 h | – |
| CC[C@H](C)[C@H](N)C(=O)N[C@@H](CCSC)C(=O)N[C@@H](CCC(N)=O)C(=O)N[C@@H](CC(C)C)C(=O)N[C@@H](CCSC)C(=O)N1CCC[C@H]1C(=O)N[C@@H](Cc1ccccc1)C(=O)NCC(=O)N[C@@H](CS)C(=O)N[C@@H](CC(C)C)C(=O)O | – | 18100 nM | 653 nM | 837 nM | 0.5 h | 30.94 min |
| CC[C@H](C)[C@H](NC(=O)[C@@H](NC(=O)[C@H](CC(C)C)NC(=O)[C@@H](NC(=O)[C@@H]1CCCN1C(=O)[C@H](CCCNC(=N)N)NC(=O)[C@H](CCCNC(=N)N)NC(=O)[C@H](CC(N)=O)NC(=O)[C@H](CCSC)NC(=O)[C@@H](N)CO)[C@@H](C)CC)[C@@H](C)O)C(=O)O | – | 16300 nM | – | 1200 nM | 0.3 h | – |
| CSCC[C@H](NC(=O)[C@H](CC(C)C)NC(=O)[C@H](CCC(N)=O)NC(=O)[C@@H](N)CCSC)C(=O)N1CCC[C@H]1C(=O)N[C@@H](Cc1ccccc1)C(=O)NCC(=O)N[C@@H](CS)C(=O)N[C@@H](CC(C)C)C(=O)N[C@@H](CC(C)C)C(=O)O | – | 23600 nM | 16.3 nM | 20 nM | 0.4 h | 22.87 min |
